Test results from the supplement of paper PMC11208160.

Assay: recombinant barcode read abundance after kanamycin selection (control-corrected) (log10(CPM+1)); higher = more efficient recombination; sequences stand for … in AGTGCAGAGAAAATCGGCCAGTTTTCTCTGCCTGCAGTCCGCATGCCGT…AGATTTATGCAGCGGACTGCCTTTCTCCCAAAGTGATAAACCGGACAGTATCATGGACCGGTTTTCCCGGTAATCCGTATTTGCAAGGTTGGTTTCACT; site = the 11-nt target
Procedure, shortened: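 Recombination efficiency in this pooled E. coli screen uses counts per million of barcodes at recombinant junctions, averaged and corrected against the control. The reported form is log10(CPM+1). Two replicates were plated on chloramphenicol/ampicillin LB agar as control and two on chloramphenicol/ampicillin/kanamycin with 0.1 mM IPTG.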
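Also: IS621 recombinase and bridge RNA in Escherichia coli cells.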

Row | Sequence | recombinant barcode read abundance (log10)
1 | CAAACCGCTTGGGTTCTAACCTGTTGCCT (site CTAACCGCTAG) | 0.117
2 | CAAACTCCTTGGGTTCTAACCTGTTGCGT (site CAAACTCCTAA) | 0.124
3 | CAAACTCCTTGGGTTCTAACCTGTTGCGT (site CAAACTCCTAC) | 0.951
4 | CAAACTCCTTGGGTTCTAACCTGTTGCGT (site CAAACTCCTAG) | 0.0424
5 | CAAACTCCTTGGGTTCTAACCTGTTGCGT (site CAAACTCCTAT) | 0.0528
6 | CAAAGATCTTGGGTTCTAACCTGTTGCCT (site CAAAGATCTAG) | 0.821
7 | CAAAGATCTTGGGTTCTAACCTGTTGCCT (site CCAAGATCTAG) | 0
8 | CAAAGATCTTGGGTTCTAACCTGTTGCCT (site CGAAGATCTAG) | 0.023
9 | CAAAGATCTTGGGTTCTAACCTGTTGCCT (site CTAAGATCTAG) | 0.165
10 | CAAATAACTTGGGTTCTAACCTGTTGCCT (site CAAATAACTAG) | 0.461
11 | CAAATAACTTGGGTTCTAACCTGTTGCCT (site CAGCTAACTAG) | 0.134
12 | CAAATCCCTTGGGTTCTAACCTGTTGCGT (site ATCGAGTCTTG) | 0.174
13 | CAAATCCCTTGGGTTCTAACCTGTTGCGT (site CAAATCCCTAC) | 2.08
14 | CAACACTCTTGGGTTCTAACCTGTTGCCT (site CAACACTCTAG) | 2.43
15 | CAACACTCTTGGGTTCTAACCTGTTGCCT (site CCACACTCTAG) | 0.452
16 | CAACACTCTTGGGTTCTAACCTGTTGCCT (site CGACACTCTAG) | 0.102
17 | CAACACTCTTGGGTTCTAACCTGTTGCCT (site CTACACTCTAG) | 0.446
18 | CAACCGTCTTGGGTTCTAACCTGTTGCCT (site CAACCGACTAG) | 0
19 | CAACCGTCTTGGGTTCTAACCTGTTGCCT (site CAACCGCCTAG) | 0.439
20 | CAACCGTCTTGGGTTCTAACCTGTTGCCT (site CAACCGGCTAG) | 0.0528
21 | CAACCGTCTTGGGTTCTAACCTGTTGCCT (site CAACCGTCTAG) | 1.33
22 | CAACGACCTTGGGTTCTAACCTGTTGCCT (site AAACGACCTAG) | 0.172

Row | Sequence | recombinant barcode read abundance (log10)
23 | CAACGACCTTGGGTTCTAACCTGTTGCCT (site CAACGACCTAG) | 1.75
24 | CAACGACCTTGGGTTCTAACCTGTTGCCT (site GAACGACCTAG) | 0.171
25 | CAACGACCTTGGGTTCTAACCTGTTGCCT (site TAACGACCTAG) | 0.166
26 | CAACGAGCTTGGGTTCTAACCTGTTGCCG (site CAACGAGCTCG) | 0.506
27 | CAACGAGCTTGGGTTCTAACCTGTTGCCG (site CACCGAGCTCG) | 0.186
28 | CAACGAGCTTGGGTTCTAACCTGTTGCCG (site CAGCGAGCTCG) | 0
29 | CAACGAGCTTGGGTTCTAACCTGTTGCCG (site CATCGAGCTCG) | 0.218
30 | CAACGGCCTTGGGTTCTAACCTGTTGCCT (site CAAAGGCCTAG) | 0
31 | CAACGGCCTTGGGTTCTAACCTGTTGCCT (site CAACGGCCTAG) | 0.796
32 | CAACGGCCTTGGGTTCTAACCTGTTGCCT (site CAAGGGCCTAG) | 0.55
33 | CAACGGCCTTGGGTTCTAACCTGTTGCCT (site CAATGGCCTAG) | 0.0566
34 | CAACTAGCTTGGGTTCTAACCTGTTGCAT (site CAACTAGCTAT) | 0.691
35 | CAACTAGCTTGGGTTCTAACCTGTTGCAT (site TTGTACACTGA) | 0.028
36 | CAAGCACCTTGGGTTCTAACCTGTTGCTT (site CAAACACCTAA) | 0.121
37 | CAAGCACCTTGGGTTCTAACCTGTTGCTT (site CAACCACCTAA) | 0.0852
38 | CAAGCACCTTGGGTTCTAACCTGTTGCTT (site CAAGCACCTAA) | 0.187
39 | CAAGCACCTTGGGTTCTAACCTGTTGCTT (site CAATCACCTAA) | 0.338
40 | CAAGGTCCTTGGGTTCTAACCTGTTGCGG (site CAAGGTCCTCC) | 2.68
41 | CAAGGTCCTTGGGTTCTAACCTGTTGCGG (site GTTACCTCTAG) | 0.194
42 | CAAGTGGCTTGGGTTCTAACCTGTTGCCT (site CAAGTAGCTAG) | 0.417
43 | CAAGTGGCTTGGGTTCTAACCTGTTGCCT (site CAAGTCGCTAG) | 0.0501
44 | CAAGTGGCTTGGGTTCTAACCTGTTGCCT (site CAAGTGGCTAG) | 1.21

Row | Sequence | recombinant barcode read abundance (log10)
45 | CAAGTGGCTTGGGTTCTAACCTGTTGCCT (site CAAGTTGCTAG) | 0.721
46 | CAATATCCTTGGGTTCTAACCTGTTGCCT (site CAATATCCTAG) | 1.09
47 | CAATATCCTTGGGTTCTAACCTGTTGCCT (site CACTATCCTAG) | 0.0197
48 | CAATATCCTTGGGTTCTAACCTGTTGCCT (site CAGTATCCTAG) | 0.143
49 | CAATATCCTTGGGTTCTAACCTGTTGCCT (site CATTATCCTAG) | 0.0807
50 | CAATCTACTTGGGTTCTAACCTGTTGCCT (site CAACCTACTAG) | 0.391
51 | CAATCTACTTGGGTTCTAACCTGTTGCCT (site CAATCTACTAG) | 0.0558
52 | CAATTACCTTGGGTTCTAACCTGTTGCTT (site CAATTACCTAA) | 0.682
53 | CAATTACCTTGGGTTCTAACCTGTTGCTT (site GCGCCCTCTCG) | 0.0793
54 | CACAAACCTTGGGTTCTAACCTGTTGCAG (site AGATGTGCTAG) | 0.054
55 | CACAAACCTTGGGTTCTAACCTGTTGCAG (site CACAAACCTCT) | 1.17
56 | CACAAGTCTTGGGTTCTAACCTGTTGCAG (site CACAAGTCTCG) | 0.519
57 | CACAAGTCTTGGGTTCTAACCTGTTGCAG (site CACAAGTCTCT) | 2
58 | CACAAGTCTTGGGTTCTAACCTGTTGCCG (site CACAAGTCTCG) | 0.657
59 | CACAAGTCTTGGGTTCTAACCTGTTGCCG (site CACAAGTCTCT) | 0.182
60 | CACACACCTTGGGTTCTAACCTGTTGCGT (site CACAATCCTAC) | 0.189
61 | CACACACCTTGGGTTCTAACCTGTTGCGT (site CACACACCTAC) | 2.86
62 | CACACGGCTTGGGTTCTAACCTGTTGCCT (site CACACCGCTAG) | 0.246
63 | CACACGGCTTGGGTTCTAACCTGTTGCCT (site CACACGGCTAG) | 0.518
64 | CACACTACTTGGGTTCTAACCTGTTGCTT (site CACACTACTAA) | 0.0581
65 | CACACTACTTGGGTTCTAACCTGTTGCTT (site TATACTACTAA) | 0.101
66 | CACAGCACTTGGGTTCTAACCTGTTGCCT (site CACAACACTAG) | 0.065

Row | Sequence | recombinant barcode read abundance (log10)
67 | CACAGCACTTGGGTTCTAACCTGTTGCCT (site CACACCACTAG) | 0.00856
68 | CACAGCACTTGGGTTCTAACCTGTTGCCT (site CACAGCACTAG) | 1.44
69 | CACAGCACTTGGGTTCTAACCTGTTGCCT (site CACATCACTAG) | 0.0547
70 | CACAGGCCTTGGGTTCTAACCTGTTGCAG (site CACAGGCCTCT) | 1.98
71 | CACAGGCCTTGGGTTCTAACCTGTTGCAG (site TGTTCAGCTAG) | 0.0715
72 | CACATACCTTGGGTTCTAACCTGTTGCAT (site CACATACCTAT) | 1.87
73 | CACATACCTTGGGTTCTAACCTGTTGCAT (site CACCTTCCTAT) | 0.0683
74 | CACATCACTTGGGTTCTAACCTGTTGCCT (site CACAACACTAG) | 0.122
75 | CACATCACTTGGGTTCTAACCTGTTGCCT (site CACACCACTAG) | 0.225
76 | CACATCACTTGGGTTCTAACCTGTTGCCT (site CACAGCACTAG) | 0.0683
77 | CACATCACTTGGGTTCTAACCTGTTGCCT (site CACATCACTAG) | 0.704
78 | CACATGCCTTGGGTTCTAACCTGTTGCTG (site CACATGCCTCA) | 2
79 | CACATGCCTTGGGTTCTAACCTGTTGCTG (site TTGTACACTGG) | 0.0315
80 | CACCAGACTTGGGTTCTAACCTGTTGCCA (site ACAATCTCTGA) | 0.0296
81 | CACCAGACTTGGGTTCTAACCTGTTGCCA (site CACCAGACTTG) | 0.539
82 | CACCCACCTTGGGTTCTAACCTGTTGCCT (site AACCCACCTAG) | 0.0311
83 | CACCCACCTTGGGTTCTAACCTGTTGCCT (site CACCCACCTAG) | 1.66
84 | CACCCACCTTGGGTTCTAACCTGTTGCCT (site GACCCACCTAG) | 0.0974
85 | CACCCACCTTGGGTTCTAACCTGTTGCCT (site TACCCACCTAG) | 0.0304
86 | CACCCTTCTTGGGTTCTAACCTGTTGCTC (site CACCCTTCTGA) | 1.94
